Some test systems named below: RPMI-8226 leukemia; SK-MEL-28 melanoma; NCI-H23 lung; HCT-116 colon; NCI-H226 lung; SK-OV-3 ovarian; SK-MEL-2 melanoma; HOP-92 NSCLC; CAKI-1 renal; UACC-62 melanoma.
Assay in all cases: DTP human tumour cell line panel, 48 h

Each structure is given as a SMILES string. Several values for one entry are separate records, joined by “and”; a condition that tells them apart may be missing. Equal values may be shown once.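 Results reflect a 48-hour exposure of cells in 96-well plates to compound at five concentrations. GI50: concentration for 50% inhibition of growth. TGI denotes the concentration required for complete inhibition of growth.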 Some results are limits rather than exact numbers.

We go through ten compounds from PubChem BioAssay (NCI).

Usually GI50 stands for the concentration at which growth is held to half of that of the control. A word on the TGI: it is the concentration at which net growth stops. Low readings indicate greater sensitivity of the cells, high ones lower sensitivity of the cells.

As to `COC(=O)[C@]12CC[C@@H](C)[C@H](C)[C@@H]1C1=CC[C@@H]3[C@@]4(C)C[C@@H](O)[C@H](O)[C@@](C)(CO)C4=CC[C@@]3(C)[C@]1(C)CC2`, the GI50 with RPMI-8226 leukemia was 13.9 µM; with SK-MEL-28 melanoma, 19.2 µM; with NCI-H23 lung, 16.2 µM; with HCT-116 colon it was 19 µM; in the assay on NCI-H226 lung, 20.1 µM; in the assay with SK-OV-3 ovarian, 19.7 µM. Also, the GI50 was 17.8 µM in the assay with SK-MEL-2 melanoma, 19.2 µM with HOP-92 NSCLC and 15.6 µM in the assay with CAKI-1 renal. In addition, the TGI with RPMI-8226 leukemia is 34.6 µM; with SK-MEL-28 melanoma it was 40.9 µM; in the assay on NCI-H23 lung it was 33.6 µM; with HCT-116 colon, 37.2 µM; in the assay on NCI-H226 lung it was 40.4 µM; in the assay with SK-OV-3 ovarian, 34.4 µM. Also, the figures for the concentration for total growth inhibition (TGI) in the assay on SK-MEL-2 melanoma, with HOP-92 NSCLC and with CAKI-1 renal were 33.1 µM, 34.9 µM and 29.8 µM, respectively.

Consider `O=C(Nc1cccc(Cl)c1)C(=O)C(C(=O)c1ccc2ccccc2c1)C1OC(=O)c2ccccc21` (stereo unspecified), for which the TGI in the assay with RPMI-8226 leukemia came out at 44 µM; with UACC-62 melanoma it was 40.6 µM; with SK-MEL-28 melanoma it was 25.8 µM; with NCI-H23 lung, 24.8 µM; in the assay with HCT-116 colon it was 26.7 µM; in the assay on NCI-H226 lung, 11.5 µM. The concentration for total growth inhibition (TGI) in the assay with SK-OV-3 ovarian was above 100 µM; in the assay with SK-MEL-2 melanoma, 32.5 µM; in the assay on HOP-92 NSCLC, 54.3 µM; in the assay on CAKI-1 renal, 67.6 µM.

For the compound `CCOC(=O)N[C@H]1CCc2cc(OC)c(OC)c(OC)c2-c2ccc(SC)c(=O)cc21`, the TGI in the assay with RPMI-8226 leukemia was above 100 µM; with UACC-62 melanoma it was 70.7 µM and > 100 µM; in the assay on SK-MEL-28 melanoma, above 100 µM; with HCT-116 colon it was 6.09 µM and > 39 µM; in the assay on NCI-H226 lung, 3.29 µM; in the assay on SK-OV-3 ovarian, 26.8 µM and > 100 µM. The TGI with HOP-92 NSCLC is above 100 µM. Also, the GI50 in the assay on SK-MEL-28 melanoma is above 55.6 µM; in the assay with SK-OV-3 ovarian it was below 0.01 µM; in the assay on SK-MEL-2 melanoma, 0.345 µM; with HOP-92 NSCLC it was 0.0198 µM; in the assay on CAKI-1 renal, below 0.0182 µM.

Consider `COC(=O)C(=Cc1cc(OC)c(OC)c(OC)c1-c1cc2c(cc1C1(C)OCCS1)OCO2)C(=O)OC` (stereo unspecified), for which the TGI with RPMI-8226 leukemia, with UACC-62 melanoma, in the assay with SK-MEL-28 melanoma, in the assay on NCI-H23 lung, in the assay with HCT-116 colon and in the assay with NCI-H226 lung was above 100 µM each time. For the same compound, the TGI in the assay on SK-OV-3 ovarian is above 100 µM; in the assay on SK-MEL-2 melanoma, 69.6 µM; with HOP-92 NSCLC, 37.6 µM; in the assay on CAKI-1 renal, above 100 µM.

For the compound `CC12CCC(=O)C[C@H]1CCC(OC=O)C2Br` (stereo partly specified), the TGI with RPMI-8226 leukemia, with UACC-62 melanoma, in the assay on SK-MEL-28 melanoma, in the assay on NCI-H23 lung, in the assay with HCT-116 colon and with NCI-H226 lung was above 100 µM in each case. Moreover, the total growth inhibition concentration (TGI) in the assay with SK-OV-3 ovarian, with SK-MEL-2 melanoma, with HOP-92 NSCLC and in the assay with CAKI-1 renal was above 100 µM each time.

Take `Clc1cc2c(c(CSc3nc4ccccc4n4cccc34)c1)OCOC2`: the GI50 was above 100 µM in the assay with RPMI-8226 leukemia; 76.5 µM in the assay with UACC-62 melanoma; above 100 µM in the assay on SK-MEL-28 melanoma; 26.3 µM in the assay on NCI-H23 lung; above 100 µM with HCT-116 colon; 14.3 µM with NCI-H226 lung. Besides, the GI50 was 13.7 µM in the assay with SK-OV-3 ovarian, 13.6 µM in the assay with SK-MEL-2 melanoma, 5.36 µM in the assay on HOP-92 NSCLC and above 100 µM in the assay with CAKI-1 renal. Moreover, the TGI in the assay with RPMI-8226 leukemia, in the assay on UACC-62 melanoma, in the assay with SK-MEL-28 melanoma, in the assay with NCI-H23 lung, in the assay on HCT-116 colon and in the assay on NCI-H226 lung was above 100 µM throughout. Besides, the TGI in the assay on SK-OV-3 ovarian is 45 µM; with SK-MEL-2 melanoma, 44.9 µM; in the assay on HOP-92 NSCLC, 35.5 µM; with CAKI-1 renal, above 100 µM.

Turning to `COc1c(O)c2c(=O)cc3c4c5c(cc(=O)c6c(O)c(OC)c(CC(C)O)c(c(c1CC(C)O)c24)c65)OCO3` (stereo unspecified), the TGI with RPMI-8226 leukemia came out at 12 µM; in the assay with UACC-62 melanoma, 3.79 µM; in the assay with SK-MEL-28 melanoma, 4.23 µM; in the assay with NCI-H23 lung, 3.1 µM; in the assay on HCT-116 colon, 3.48 µM; in the assay on NCI-H226 lung, 6.66 µM. The concentration for total growth inhibition (TGI) in the assay with SK-OV-3 ovarian amounted to 20.4 µM; in the assay with SK-MEL-2 melanoma it was 3.57 µM; with HOP-92 NSCLC, 5.47 µM; with CAKI-1 renal, 24.3 µM.

In the case of `O=C(Nc1cccc(C(F)(F)F)c1)c1ccc(NC2=C(Cl)C(=O)N(Cc3ccc(Cl)cc3Cl)C2=O)cc1`, the GI50 in the assay with RPMI-8226 leukemia is 2.29 µM; in the assay on UACC-62 melanoma, 13.7 µM; with SK-MEL-28 melanoma, 14.1 µM; with HCT-116 colon, 5.99 µM; with NCI-H226 lung, 5.92 µM; in the assay on SK-OV-3 ovarian it was 60.4 µM. The GI50 is 10.9 µM with SK-MEL-2 melanoma, 4.71 µM with HOP-92 NSCLC and 16.8 µM in the assay on CAKI-1 renal. The TGI is 5.08 µM in the assay on RPMI-8226 leukemia; 26.6 µM in the assay with UACC-62 melanoma; 30.9 µM with SK-MEL-28 melanoma; 18.6 µM in the assay with HCT-116 colon; 24 µM with NCI-H226 lung; above 100 µM with SK-OV-3 ovarian. The figures for the TGI with SK-MEL-2 melanoma, in the assay on HOP-92 NSCLC and in the assay with CAKI-1 renal were 25.6 µM, 16.2 µM and 34.6 µM, respectively.

Turning to `c1ccc2c(OCCSCCCCCCCCCCSCCOc3cccc4ccccc34)cccc2c1`, the TGI in the assay with RPMI-8226 leukemia, with UACC-62 melanoma, in the assay on SK-MEL-28 melanoma, with NCI-H23 lung, in the assay on NCI-H226 lung and in the assay with SK-OV-3 ovarian was above 100 µM throughout. In addition, the concentration for total growth inhibition (TGI) in the assay on SK-MEL-2 melanoma, in the assay with HOP-92 NSCLC and in the assay on CAKI-1 renal was above 100 µM throughout.

For the compound `CSc1nc(SC)c2c(C#N)[nH]nc2n1`, the TGI with RPMI-8226 leukemia, with UACC-62 melanoma, in the assay on SK-MEL-28 melanoma, in the assay on NCI-H23 lung, with NCI-H226 lung and with SK-OV-3 ovarian was above 100 µM in each case. Besides, the TGI in the assay with SK-MEL-2 melanoma, with HOP-92 NSCLC and with CAKI-1 renal was above 100 µM each time.
